Data set [1] relates to [Candida] auris. In words: Antifungal activity against Candida auris CDC0381 assessed as lowest compound concentration required to inhibit 50 % growth. In kind it is functional, Candidozyma auris.
Data set [2] relates to [Candida] auris. In words: Antifungal activity against Candida auris CDC0385 assessed as lowest compound concentration required to inhibit 90 % growth. In kind it is functional, Candidozyma auris.
Data set [3] concerns [Candida] auris. In words: Antifungal activity against Candida auris CDC0385 assessed as growth inhibition. Conditions: Candidozyma auris. In kind it is functional, organism-based.
In data set [4] the test system is [Candida] auris. Kind of data set: Antifungal activity against Candida auris ATCC 6258 assessed as lowest compound concentration required to inhibit 50 % growth. In kind it is functional, Candidozyma auris.
The test system of data set [5] is [Candida] auris. In words: Antifungal activity against Candida auris ATCC 6258 assessed as lowest compound concentration required to inhibit 90 % growth. In kind it is functional, Candidozyma auris.
Data set [6] deals with [Candida] auris. In words: Antifungal activity against Candida auris ATCC 6258 assessed as growth inhibition. In kind it is functional, organism-based. Conditions: Candidozyma auris.
For data set [7], the system named is [Candida] auris. In words: Antifungal activity against Candida auris CDC0381 assessed as lowest compound concentration required to inhibit 90 % growth. It is filed as functional, Candidozyma auris.
Data set [8] has as its system [Candida] auris. Kind of data set: Antifungal activity against Candida auris CDC0381 assessed as growth inhibition. In kind it is functional, organism-based. The conditions noted are these: Candidozyma auris.
Data set [9] deals with [Candida] auris. Kind of data set: Antifungal activity against Candida auris CDC0385 assessed as lowest compound concentration required to inhibit 50 % growth. It is filed as functional, Candidozyma auris.
The nature of data set [10]: Cytotoxicity against human HepG2 cells assessed as growth inhibition by XTT assay. In kind it is toxicity, cell-based.
Data set [11] is described as follows: Selectivity index, ratio of IC50 for cytotoxicity against human HepG2 cells to IC50 for antifungal activity against Candida auris CDC0385. It is filed as toxicity, cell-based. The conditions noted are these: read-out: Ratio IC50.

9 compounds from ChEMBL document CHEMBL5223186, “Agrochemical Lessons for Infectious Disease Research: New Resistance Breaking Antifungal Hits against Candida auris” (ACS Med Chem Lett, 2023) can be followed below.

≈ marks a conversion by molar mass, not a printed value. Where only a bound is given, the exact number is not on record here.

One may read the IC50 as the concentration needed to halve the response being measured. What is called IC90 is the concentration at which the effect reaches the 90% level. As to `C[C@@H](c1ncncc1F)[C@](O)(Cn1cncn1)c1ccc(F)cc1F` [VORICONAZOLE], the INH in [1] was 0.016 µg/mL; in data set [2] it was greater than 4 µg/mL; in data set [4], 0.25 µg/mL; in data set [5], 1 µg/mL; in [7], 4 µg/mL; in [9], 4 µg/mL. Moreover, the IC50 in [3] came to 2.94 µg/mL (≈ 8.42 µM); in data set [6], 0.2 µg/mL (≈ 0.573 µM); in data set [8], 0.01 µg/mL (≈ 0.0286 µM). The IC90 in data set [3] is greater than 4 µg/mL; in data set [6] it was 0.76 µg/mL (≈ 2.18 µM); in data set [8] it was 0.55 µg/mL (≈ 1.57 µM).

On to `COCc1ncnc(NC(C)CC#Cc2ccc(Oc3ccc(C(F)(F)F)cn3)cc2)c1OC` (stereo not given), for which the INH was less than 0.125 µg/mL in [1]; 8 µg/mL in [2]; greater than 64 µg/mL in data set [4]; greater than 64 µg/mL in data set [5]; 1 µg/mL in data set [7]; 0.5 µg/mL in data set [9]. Moreover, the IC50 was 0.45 µg/mL (≈ 0.952 µM) in [3] and greater than 100 µM in data set [10]. The IC90 in data set [3] came to 4.61 µg/mL (≈ 9.76 µM). Also, the selectivity ratio in data set [11] is greater than 222.

With `Fc1ccc2[nH]cc(-c3ccsc3Br)c2c1`, the INH in data set [1] is 16 µg/mL; in data set [2], greater than 64 µg/mL; in data set [4], 64 µg/mL; in [5] it was greater than 64 µg/mL; in data set [7], 16 µg/mL; in data set [9], 32 µg/mL. The IC50 is 29.3 µg/mL (≈ 98.9 µM) in data set [3], greater than 100 µM in data set [10], 32.2 µg/mL (≈ 109 µM) in data set [6] and 9.85 µg/mL (≈ 33.3 µM) in [8]. For the same compound, the IC90 in data set [3] is greater than 64 µg/mL; in data set [6] it was greater than 64 µg/mL; in [8] it was 15.7 µg/mL (≈ 53 µM). Moreover, the selectivity ratio in data set [11] was greater than 3.41.

Regarding `NC1CCCc2ccc(C3=NSC(c4cc(Cl)c(F)c(Cl)c4)(C(F)(F)F)C3)cc21` (stereo not given), the INH in data set [1] worked out at 2 µg/mL; in data set [2], 4 µg/mL; in data set [4], 4 µg/mL; in data set [5], 4 µg/mL; in data set [7], 2 µg/mL; in data set [9], 4 µg/mL. Moreover, the IC50 in data set [3] is 2.09 µg/mL (≈ 4.51 µM); in data set [10], 13.2 µM; in data set [6], 2.11 µg/mL (≈ 4.55 µM); in data set [8], 1.43 µg/mL (≈ 3.09 µM). Further, the 90% effect concentration (IC90) in data set [3] is 2.3 µg/mL (≈ 4.96 µM); in [6] it was 2.62 µg/mL (≈ 5.65 µM); in data set [8] it was 1.71 µg/mL (≈ 3.69 µM). Further, the selectivity ratio in [11] is 6.29.

Take `C[C@@H]1[C@H](O)[C@@H](C)/C=C/C=C/C=C/C=C/C=C/C=C/C=C/[C@H](O[C@@H]2O[C@H](C)[C@@H](O)[C@H](N)[C@@H]2O)C[C@@H]2O[C@](O)(C[C@@H](O)C[C@@H](O)[C@H](O)CC[C@@H](O)C[C@@H](O)CC(=O)O[C@H]1C)C[C@H](O)[C@H]2C(=O)O` [AMPHOTERICIN B]: the INH in [1] stood at 0.25 µg/mL; in [2], 1 µg/mL; in data set [4], 0.5 µg/mL; in data set [5], 1 µg/mL; in [7], 0.5 µg/mL; in data set [9], 1 µg/mL. Further, the IC50 in data set [3] amounted to 0.54 µg/mL (≈ 0.584 µM); in data set [6] it was 0.49 µg/mL (≈ 0.53 µM); in [8], 0.2 µg/mL (≈ 0.216 µM). Moreover, the results for the 90% effect concentration (IC90) in data set [3], in [6] and in data set [8] were 0.83 µg/mL (≈ 0.898 µM), 0.54 µg/mL (≈ 0.584 µM) and 0.39 µg/mL (≈ 0.422 µM), respectively.

As to `CCCCCn1nc(-c2ccc(Cl)cc2)cnc1=O`, the INH in data set [1] turned out to be 1 µg/mL; in data set [2] it was 4 µg/mL; in [4] it was 1 µg/mL; in data set [5], 2 µg/mL; in data set [7] it was 4 µg/mL; in [9], 2 µg/mL. Further, the concentration for half-maximal inhibition (IC50) in data set [3] turned out to be 1.8 µg/mL (≈ 6.48 µM); in [10], 2.07 µM; in [6], 0.76 µg/mL (≈ 2.74 µM); in data set [8] it was 0.72 µg/mL (≈ 2.59 µM). The IC90 in [3] was 3.64 µg/mL (≈ 13.1 µM); in [6], 1.05 µg/mL (≈ 3.78 µM); in data set [8], 1.59 µg/mL (≈ 5.72 µM). Moreover, the selectivity ratio in [11] was 1.5.

For `Cc1cc(Nc2ccccc2C)n(-c2nc(=O)cc(C)[nH]2)n1`, the INH was found to be 1 µg/mL in data set [1]; 8 µg/mL in data set [2]; 2 µg/mL in data set [4]; 4 µg/mL in [5]; 4 µg/mL in [7]; 2 µg/mL in data set [9]. Also, the concentration for half-maximal inhibition (IC50) in [3] is 1.45 µg/mL (≈ 4.91 µM); in data set [10], greater than 100 µM; in data set [6], 1.42 µg/mL (≈ 4.81 µM); in [8], 0.85 µg/mL (≈ 2.88 µM). For the same compound, the concentration for an effect of 90% (IC90) was 6.05 µg/mL (≈ 20.5 µM) in data set [3], 2.38 µg/mL (≈ 8.06 µM) in data set [6] and 1.93 µg/mL (≈ 6.53 µM) in [8]. In data set [11], the selectivity ratio was greater than 69.

On to `Clc1cc2c(c3ncccc13)OCN(CCc1ccccc1)C2`, for which the INH in [1] amounted to 4 µg/mL; in [2], 4 µg/mL; in data set [4], 2 µg/mL; in data set [5] it was 4 µg/mL; in [7] it was 4 µg/mL; in data set [9] it was 4 µg/mL. For the same compound, the IC50 is 2.14 µg/mL (≈ 6.59 µM) in data set [3], 22.7 µM in [10], 1.98 µg/mL (≈ 6.1 µM) in data set [6] and 2 µg/mL (≈ 6.16 µM) in [8]. The IC90 in data set [3] is 3.88 µg/mL (≈ 11.9 µM); in data set [6], 2.2 µg/mL (≈ 6.77 µM); in data set [8], 2.13 µg/mL (≈ 6.56 µM). Moreover, the selectivity ratio in data set [11] is 10.6.

With `C1CCC(C(CC2CCCCN2)C2CCCCC2)CC1` (stereo not given) [PERHEXILINE], the 50% inhibitory concentration (IC50) in [10] amounted to 11.3 µM.
